Columns and labels:
[1] = test system: MIA PaCa-2 (human pancreatic carcinoma cells); test: Anti-proliferative activity, MIA PaCa-2 cells (WST1 colorimetric test); assay type: cell-based; settings: MIA PaCa-2, 96 h, 96 hours treatment, up to 10 μM, nested upper bounds, read-out: IC50 for proliferation of the MIA PaCa-2 cell lines
Experimental: (§1) ii) Characterisation of Anti-Proliferative Activity:
(§2) By way of an example, the effect of treating two human cell lines MIA PaCa-2 and DU 145 with the compounds of the examples described hereinbefore will be studied. The cell lines DU 145 (human prostate carcinoma cells) and MIA PaCa-2 (human pancreatic carcinoma cells) were obtained from the American Tissue Culture Collection (Rockville, Md., USA). A 96-well plate was inoculated on day 0 with cells in 80 μl of Dulbecco's modified Eagle's medium (Gibco-Brl, Cergy-Pontoise, France) with 10% heat-inactivated foetal calf serum (Gibco-Brl, Cergy-Pontoise, France), 50,000 units/l of penicillin and 50 mg/l of streptomycin (Gibco-Brl, Cergy-Pontoise, France) and 2 mM of glutamine (Gibco-Brl, Cergy-Pontoise, France). The cells were treated on day 1 for 96 hours with increasing concentrations of each test compound up to 10 μM. At the end of this period, cell proliferation is quantified by means of a colorimetric test based on cleavage of the tetrazolium salt WST1 by the mitochondrial dehydrogenases in the viable cells, resulting in formation of formazan (Boehringer Mannheim, Meylan, France). These tests are performed in duplicate with 8 determinations per concentration tested. For each test compound, the values within the linear part of the sigmoid curve were subjected to linear regression analysis and used to estimate the IC50 inhibitory concentration. The products are solubilised in dimethylsulfoxide (DMSO) at a concentration of 10^−2 M and used in culture with a final DMSO concentration of 0.1%.

[2] = test system: DU 145 (human prostate carcinoma cells); test: Anti-proliferative activity, DU 145 cells (WST1 colorimetric test); assay type: cell-based; settings: DU-145, 96 h, 96 hours treatment, up to 10 μM, nested upper bounds, read-out: IC50 for proliferation of the DU 145 cell lines
Experimental: as §1, §2

[3] = molecular target: T1, purified recombinant CDC25C enzyme (MBP-CDC25C protein) (Homo sapiens, UniProt P30307); test: Phosphatase activity of the purified recombinant CDC25C enzyme (OMFP dephosphorylation, fluorescence); assay type: biochemical; settings: OMFP 500 μM, 4 hours at 30° C., three independent experiments; nested upper bounds; read-out: IC50 for the phosphatase activity of the purified recombinant CDC25-C enzyme
T1 construct: made in house
T1 sequence (P30307 1-473): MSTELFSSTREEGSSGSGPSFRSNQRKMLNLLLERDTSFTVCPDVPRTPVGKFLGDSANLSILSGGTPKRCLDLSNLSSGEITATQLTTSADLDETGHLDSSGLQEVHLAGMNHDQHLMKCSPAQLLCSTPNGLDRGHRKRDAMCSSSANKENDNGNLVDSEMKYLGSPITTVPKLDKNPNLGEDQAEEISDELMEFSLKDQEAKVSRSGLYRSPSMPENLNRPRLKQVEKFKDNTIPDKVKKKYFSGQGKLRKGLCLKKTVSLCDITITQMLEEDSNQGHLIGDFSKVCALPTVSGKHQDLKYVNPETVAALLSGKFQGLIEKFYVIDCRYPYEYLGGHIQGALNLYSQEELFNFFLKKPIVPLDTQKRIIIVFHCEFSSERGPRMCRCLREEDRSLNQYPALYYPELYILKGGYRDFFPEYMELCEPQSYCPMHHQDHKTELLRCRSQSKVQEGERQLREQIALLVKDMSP
Experimental: i) Determination of the Phosphatase Activity of the Purified Recombinant CDC25C Enzyme:
The phosphatase activity of the MBP-CDC25C protein is evaluated through its dephosphorylation of 3-O-methylfluorescein-phosphate (OMFP) to form 3-O-methylfluorescein (OMF), determining the fluorescence of the reaction product at 475 nm. This assay can be used to identify inhibitors of the recombinant CDC25 enzyme. The preparation of the MBP-CDC25C fusion protein is described in the PCT patent application published under the number WO 01/44467.
The reaction is performed in 384-well plates in a final volume of 50 μl. The MBP-CDC25C protein (prepared as described hereinabove) is stored in the following elution buffer: 20 mM Tris-HCl pH 7.4; 250 mM NaCl; 1 mM EDTA; 1 mM dithiothreitol (DTT); 10 mM maltose. It is diluted to a concentration of 60 μM in the following reaction buffer: 50 mM Tris-HCl pH 8.2; 50 mM NaCl; 1 mM DTT; 20% glycerol. The background noise is determined using with the buffer without adding the enzyme. The products are tested at decreasing concentrations from 40 μM. The reaction is initiated by the addition of OMFP solution to a final concentration of 500 μM (prepared immediately before use from a 12.5 mM stock solution in 100% DMSO (Sigma #M2629)). After 4 hours at 30° C. in a disposable 384-well plate, the fluorescence measured at OD 475 nm is read on a Victor^2 plate reader (EGG-Wallac). The concentration that produces 50% inhibition of the enzyme reaction is calculated from three independent experiments. Only the values that fall within the linear part of the sigmoid curve are used for the linear regression analysis.

Row | IC50 [1] [µM] | IC50 [2] [µM] | melting point [°C] | IC50 [3] [nM] | Compound
1 | ≤ 10 | ≤ 10 | 235 to 237 | ≤ 1000 | COc1ccc(Nc2c(NCCNc3cc(N4CCCC4)nc(N4CCCC4)n3)c(=O)c2=O)cc1 [Example 18, 3-({2-[(2,6-dipyrrolidin-1-ylpyrimidin-4-yl)amino]ethyl}amino)-4-[(4-methoxyphenyl)amino]cyclobut-3-ene-1,2-dione]
2 | ≤ 10 | ≤ 10 | 186 to 188 | ≤ 1000 | CC(=O)c1ccc(Nc2c(NCCNc3cc(N4CCCC4)nc(N4CCCC4)n3)c(=O)c2=O)cc1 [Example 19, 3-[(4-acetylphenyl)amino]-4-({2-[(2,6-dipyrrolidin-1-ylpyrimidin-4-yl)amino]ethyl}amino)cyclobut-3-ene-1,2-dione]
3 | ≤ 10 | ≤ 10 | – | ≤ 1000 | CN(Cc1ccc(Nc2c(NCCNc3cc(N4CCCC4)nc(N4CCCC4)n3)c(=O)c2=O)cc1)C(=O)OC(C)(C)C [Example 21, tert-butyl (4-{[2-({2-[(2,6-dipyrrolidin-1-ylpyrimidin-4-yl)amino]ethyl}amino)-3,4-dioxocyclobut-1-en-1-yl]amino}benzyl)methylcarbamate]
4 | ≤ 10 | ≤ 10 | – | ≤ 1000 | CCCc1ccc(Nc2c(NCCNc3cc(N4CCCC4)nc(N4CCCC4)n3)c(=O)c2=O)cc1 [Example 24, 3-({2-[(2,6-dipyrrolidin-1-ylpyrimidin-4-yl)amino]ethyl}amino)-4-[(4-propylphenyl)amino]cyclobut-3-ene-1,2-dione]
5 | ≤ 10 | ≤ 10 | 176 to 180 | ≤ 1000 | CC(C)(C)OC(=O)NCc1ccc(Nc2c(NCCNc3cc(N4CCCC4)nc(N4CCCC4)n3)c(=O)c2=O)cc1 [Example 25, tert-butyl (4-{[2-({2-[(2,6-dipyrrolidin-1-ylpyrimidin-4-yl)amino]ethyl}amino)-3,4-dioxocyclobut-1-en-1-yl]amino}benzyl)carbamate]
6 | ≤ 10 | ≤ 10 | 216 to 218 | ≤ 1000 | CC(C)(C)OC(=O)NCCc1ccc(Nc2c(NCCNc3cc(N4CCCC4)nc(N4CCCC4)n3)c(=O)c2=O)cc1 [Example 29, tert-butyl [2-(4-{[2-({2-[(2,6-dipyrrolidin-1-ylpyrimidin-4-yl)amino]ethyl}amino)-3,4-dioxocyclobut-1-en-1-yl]amino}phenyl)ethyl]carbamate]

Continued, compound first:

Row | Compound | IC50 [1] [µM] | IC50 [2] [µM] | melting point [°C] | IC50 [3] [nM]
7 | O=c1c(NCCNc2cc(N3CCCC3)nc(N3CCCC3)n2)c(NCc2ccc(Cl)cc2)c1=O [Example 5, 3-[(4-chlorobenzyl)amino]-4-({2-[(2,6-dipyrrolidin-1-ylpyrimidin-4-yl)amino]ethyl}amino)cyclobut-3-ene-1,2-dione] | ≤ 10 | ≤ 10 | 246 to 248 | ≤ 1000
8 | CN(CCNc1cc(N2CCCC2)nc(N2CCCC2)n1)CCNc1c(Nc2ccc(Cl)cc2)c(=O)c1=O [Example 8, 3-[(4-chlorophenyl)amino]-4-({2-[{2-[(2,6-dipyrrolidin-1-ylpyrimidin-4-yl)amino]ethyl}(methyl)amino]ethyl}amino)cyclobut-3-ene-1,2-dione] | ≤ 10 | ≤ 10 | 144 to 146 | ≤ 5000
9 | O=c1c(NCCNc2cc(N3CCCC3)nc(N3CCCC3)n2)c(Nc2ccc(Cl)c(C(F)(F)F)c2)c1=O [Example 10, 3-{[4-chloro-3-(trifluoromethyl)phenyl]amino}-4-({2-[(2,6-dipyrrolidin-1-ylpyrimidin-4-yl)amino]ethyl}amino)cyclobut-3-ene-1,2-dione] | ≤ 10 | ≤ 10 | 216 to 218 | ≤ 15000
10 | O=c1c(NCCNc2cc(N3CCCC3)nc(N3CCCC3)n2)c(Nc2cc(F)cc(F)c2)c1=O [Example 15, 3-[(3,5-difluorophenyl)amino]-4-({2-[(2,6-dipyrrolidin-1-ylpyrimidin-4-yl)amino]ethyl}amino)cyclobut-3-ene-1,2-dione] | – | ≤ 10 | 192 to 194 | ≤ 1000
11 | O=c1c(NCCNc2cc(N3CCCC3)nc(N3CCCC3)n2)c(Nc2cccc(Cl)c2)c1=O [Example 17, 3-[(3-chlorophenyl)amino]-4-({2-[(2,6-dipyrrolidin-1-ylpyrimidin-4-yl)amino]ethyl}amino)cyclobut-3-ene-1,2-dione] | ≤ 10 | ≤ 10 | 209 to 211 | ≤ 5000
12 | COc1cccc(Nc2c(NCCNc3cc(N4CCCC4)nc(N4CCCC4)n3)c(=O)c2=O)c1 [Example 20, 3-({2-[(2,6-dipyrrolidin-1-ylpyrimidin-4-yl)amino]ethyl}amino)-4-[(3-methoxyphenyl)amino]cyclobut-3-ene-1,2-dione] | ≤ 10 | ≤ 10 | 205 to 207 | ≤ 5000
13 | O=c1c(NCCNc2cc(N3CCCC3)nc(N3CCCC3)n2)c(Nc2ccc(C3CCCCC3)cc2)c1=O [Example 23, 3-[(4-cyclohexylphenyl)amino]-4-({2-[(2,6-dipyrrolidin-1-ylpyrimidin-4-yl)amino]ethyl}amino)cyclobut-3-ene-1,2-dione] | ≤ 10 | ≤ 10 | 218 to 220 | ≤ 5000
14 | O=c1c(NCCNc2cc(N3CCCC3)nc(N3CCCC3)n2)c(Nc2ccc3c(c2)OCO3)c1=O [Example 26, 3-(1,3-benzodioxol-5-ylamino)-4-({2-[(2,6-dipyrrolidin-1-ylpyrimidin-4-yl)amino]ethyl}amino)cyclobut-3-ene-1,2-dione] | ≤ 10 | ≤ 10 | 180 to 190 | ≤ 1000
15 | O=c1c(NCCNc2cc(N3CCCC3)nc(N3CCCC3)n2)c(Nc2ccc(C(F)(F)F)cc2)c1=O [Example 32, 3-({2-[(2,6-dipyrrolidin-1-ylpyrimidin-4-yl)amino]ethyl}amino)-4-{[4-(trifluoromethyl)phenyl]amino}cyclobut-3-ene-1,2-dione] | – | ≤ 10 | > 250 | ≤ 1000
16 | O=c1c(NCCNc2cc(N3CCCC3)nc(N3CCCC3)n2)c(Nc2ccc([N+](=O)[O-])cc2)c1=O [Example 34, 3-({2-[(2,6-dipyrrolidin-1-ylpyrimidin-4-yl)amino]ethyl}amino)-4-[(4-nitrophenyl)amino]cyclobut-3-ene-1,2-dione] | – | ≤ 10 | – | ≤ 1000
17 | O=c1c(NCCNc2cc(N3CCCC3)nc(N3CCCC3)n2)c(Nc2ccc(Cl)c(F)c2)c1=O [Example 36, 3-[(4-chloro-3-fluorophenyl)amino]-4-({2-[(2,6-dipyrrolidin-1-ylpyrimidin-4-yl)amino]ethyl}amino)cyclobut-3-ene-1,2-dione] | – | ≤ 10 | – | ≤ 1000

Reference: patent US20100173910A1, “TRIAMINOPYRIMIDINE CYCLOBUTENEDIONE DERIVATIVES USED AS PHOSPHATASE CDC25 INHIBITORS” (IPDRN PHSTMS D.S.S., priority 2007, published 2010)
